The values below come from US20090253669A1, “Substituted Sulfonamide Compounds” (GRUENENTHAL GmbH, priority 2008, published 2009).

The target of experiment [1] is T1, human B1R receptor (hB1R) (Homo sapiens, UniProt P46663).
T1 construct: host or cells: CHO K1 cells
T1 sequence (P46663 1-353): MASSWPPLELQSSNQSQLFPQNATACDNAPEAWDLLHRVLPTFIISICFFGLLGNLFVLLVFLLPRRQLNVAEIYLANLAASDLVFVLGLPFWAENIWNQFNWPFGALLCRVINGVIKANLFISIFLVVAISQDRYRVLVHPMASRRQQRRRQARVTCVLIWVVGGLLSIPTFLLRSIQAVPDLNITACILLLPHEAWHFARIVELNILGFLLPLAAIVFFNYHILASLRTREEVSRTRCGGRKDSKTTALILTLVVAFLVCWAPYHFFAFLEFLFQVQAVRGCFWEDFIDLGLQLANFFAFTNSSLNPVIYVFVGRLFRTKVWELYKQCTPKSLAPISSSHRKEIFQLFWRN
As to the kind of experiment: FLIPR Ca2+ assay on hB1R-transfected CHO K1 cells, antagonistic action. Type of experiment: cell-based.

In experiment [2] the target is T2, B1R receptor of the rat (rB1R) (Rattus norvegicus, UniProt P97583).
T2 construct: host or cells: CHO K1 cells
T2 sequence (P97583 1-337): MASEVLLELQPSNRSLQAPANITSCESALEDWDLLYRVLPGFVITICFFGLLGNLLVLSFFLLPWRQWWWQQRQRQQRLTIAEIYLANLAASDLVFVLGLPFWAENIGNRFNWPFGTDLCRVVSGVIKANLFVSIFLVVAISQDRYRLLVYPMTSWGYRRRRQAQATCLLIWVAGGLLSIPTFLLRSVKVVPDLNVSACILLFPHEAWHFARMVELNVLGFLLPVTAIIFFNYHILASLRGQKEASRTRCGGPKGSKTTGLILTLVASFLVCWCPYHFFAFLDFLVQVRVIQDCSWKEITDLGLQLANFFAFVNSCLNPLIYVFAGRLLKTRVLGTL
Nature of the experiment: FLIPR Ca2+ assay on rB1R-transfected CHO K1 cells, antagonistic action. The class given is cell-based.

[3] abbreviates: CHO-K1, 10 μM test substance, agonist Lys-Des-Arg9-bradykinin 0.5 nM, % of maximum achievable inhibition, read-out: hB1R [10 μM] % inhibition.
[4] abbreviates: CHO-K1, 10 μM test substance, agonist Des-Arg9-bradykinin 100 nM, % of maximum achievable inhibition, read-out: rB1R [10 μM] % inhibition.

Molecules are shown by their SMILES. Like-named read-outs stand apart in the source and are kept apart here.

What is called inhibition is the change of the read-out against control, counted positive when it falls.

Regarding `COc1cc(C)c(S(=O)(=O)N(C)CCOCC(=O)N2CCC(CCc3ccccc3)(N(C)C)CC2)c(C)c1` [Compound 48, N-(2-(2-(4-(dimethylamino)-4-phenethylpiperidin-1-yl)-2-oxoethoxy)ethyl)-4-methoxy-N,2,6-trimethylbenzenesulfonamide], the inhibition at 10 µM in experiment [1] (setting [3]) is 102%; in experiment [2] (setting [4]) it was 100%.

Regarding `COc1cc(C)c(S(=O)(=O)N2CCC(OCC(=O)NC3CCC(CCc4ccccc4)(N(C)C)CC3)C2)c(C)c1` (stereo not drawn) [Compound 5, N-(4-(dimethylamino)-4-phenethylcyclohexyl)-2-(1-(4-methoxy-2,6-dimethylphenylsulfonyl)pyrrolidin-3-yloxy)acetamide], the inhibition at 10 µM was 104% in experiment [1] (setting [3]) and 100% in experiment [2] (setting [4]).

With `CN1CCN(C2(c3ccccc3)CCN(C(=O)CC(NS(=O)(=O)c3ccc4ccccc4c3)c3ccccc3)CC2)CC1` (stereo not drawn) [Compound 82, N-(3-(4-(4-methylpiperazin-1-yl)-4-phenylpiperidin-1-yl)-3-oxo-1-phenylpropyl)naphthalene-2-sulfonamide], the inhibition at 10 µM in experiment [1] (setting [3]) and in experiment [2] (setting [4]) was 99% in each case.

Turning to `CN(C)C1(c2ccccc2)CCC(NC(=O)CC2c3ccccc3CCN2S(=O)(=O)c2ccc(Cl)c(Cl)c2)CC1` (stereo not drawn) [Compound 26, 2-(2-(3,4-dichlorophenylsulfonyl)-1,2,3,4-tetrahydroisoquinolin-1-yl)-N-(4-(dimethylamino)-4-phenylcyclohexyl)acetamide], the results for the inhibition at 10 µM in experiment [1] (setting [3]) and in experiment [2] (setting [4]) were 84% and 56%, respectively.

Regarding `COc1cc(C)c(S(=O)(=O)N2CCCCC2COCC(=O)NCC2CCC(c3ccccc3)(N3CCOCC3)CC2)c(C)c1` (stereo not drawn) [Compound 157, 2-((1-(4-methoxy-2,6-dimethylphenylsulfonyl)piperidin-2-yl)methoxy)-N-((4-morpholino-4-phenylcyclohexyl)methyl)acetamide], the inhibition at 10 µM in experiment [1] (setting [3]) was found to be 76%; in experiment [2] (setting [4]), 99%.

In the case of `O=C(CC(NS(=O)(=O)c1ccc2ccccc2c1)c1ccccc1)N1CCC(c2ccccc2)(N2CCN(c3ccncc3)CC2)CC1` (stereo not drawn) [Compound 98, N-(3-oxo-1-phenyl-3-(4-phenyl-4-(4-(pyridin-4-yl)piperazin-1-yl)piperidin-1-yl)propyl)naphthalene-2-sulfonamide], the inhibition at 10 µM in experiment [1] (setting [3]) came out at 72%; in experiment [2] (setting [4]) it was 91%.

For the compound `COc1cc(C)c(S(=O)(=O)N(C)CCOCC(=O)N2CCC(c3cccc(F)c3)(N3CCN(C)CC3)CC2)c(C)c1` [Compound 44, N-(2-(2-(4-(3-fluorophenyl)-4-(4-methylpiperazin-1-yl)piperidin-1-yl)-2-oxoethoxy)ethyl)-4-methoxy-N,2,6-trimethylbenzenesulfonamide], in experiment [1] (10 μM test substance, agonist Lys-Des-Arg9-bradykinin 0.5 nM, % of maximum achievable inhibition), the “hB1R [10 μM] % inhibition” value is on record as 102%. Further, the “rB1R [10 μM] % inhibition” value in experiment [2] (10 μM test substance, agonist Des-Arg9-bradykinin 100 nM, % of maximum achievable inhibition) came to 101%.

For the compound `O=C(COCC1CCCN1S(=O)(=O)c1c(Cl)cc(Cl)cc1Cl)NC1CCC(c2ccccc2)(N2CCCC2)CC1` (stereo not drawn) [Compound 146, N-(4-phenyl-4-(pyrrolidin-1-yl)cyclohexyl)-2-((1-(2,4,6-trichlorophenylsulfonyl)pyrrolidin-2-yl)methoxy)acetamide], the inhibition at 10 µM in experiment [1] (setting [3]) came to 64%; in experiment [2] (setting [4]), 108%.

Regarding `O=C(COCC1CCCN1S(=O)(=O)c1c(Cl)cc(Cl)cc1Cl)NC1CCC(Cc2ccccc2)(N2CCCC2)CC1` (stereo not drawn) [Compound 156, N-(4-benzyl-4-(pyrrolidin-1-yl)cyclohexyl)-2-((1-(2,4,6-trichlorophenylsulfonyl)pyrrolidin-2-yl)methoxy)acetamide], the values for the inhibition at 10 µM in experiment [1] (setting [3]) and in experiment [2] (setting [4]) were 76% and 100%, respectively.

As for `Cc1cc(C)c(S(=O)(=O)N2CCC(OCC(=O)NC3CCC(CCc4ccccc4)(N(C)C)CC3)C2)c(C)c1` (stereo not drawn) [Compound 29, N-(4-(dimethylamino)-4-phenethylcyclohexyl)-2-(1-(mesitylsulfonyl)pyrrolidin-3-yloxy)acetamide], the figures for the inhibition at 10 µM in experiment [1] (setting [3]) and in experiment [2] (setting [4]) were 61% and 46%, respectively.

Consider `CN(CCCC1CCC(CCc2ccccc2)(N2CCCC2)CC1)C(=O)CC1CCCCN1S(=O)(=O)c1cccc(C(F)(F)F)c1` (stereo not drawn) [Compound 134, N-methyl-N-(3-(4-phenethyl-4-(pyrrolidin-1-yl)cyclohexyl)propyl)-2-(1-(3-(trifluoromethyl)phenylsulfonyl)piperidin-2-yl)acetamide], for which the inhibition at 10 µM in experiment [1] (setting [3]) stood at 102%; in experiment [2] (setting [4]) it was 38%.

As to `CN(CCCC1CCC(Cc2ccccc2)(N2CCCC2)CC1)C(=O)CC1CCCCN1S(=O)(=O)c1cccc(C(F)(F)F)c1` (stereo not drawn) [Compound 93, N-(3-(4-benzyl-4-(pyrrolidin-1-yl)cyclohexyl)propyl)-N-methyl-2-(1-(3-(trifluoromethyl)phenylsulfonyl)piperidin-2-yl)acetamide], the results for the inhibition at 10 µM in experiment [1] (setting [3]) and in experiment [2] (setting [4]) were 98% and 94%, respectively.

`CN(C)C1(c2ccccc2)CCC(NC(=O)COC2CCN(S(=O)(=O)c3c(Cl)cc(Cl)cc3Cl)C2)CC1` (stereo not drawn) [Compound 198, N-(4-(dimethylamino)-4-phenylcyclohexyl)-2-(1-(2,4,6-trichlorophenylsulfonyl)pyrrolidin-3-yloxy)acetamide]: the inhibition at 10 µM in experiment [1] (setting [3]) is 63%; in experiment [2] (setting [4]), 47%.

In the case of `COc1cc(C)c(S(=O)(=O)N(C)CCOCC(=O)N(C)CCC2CCC(CCc3ccccc3)(N3CCCC3)CC2)c(C)c1` (stereo not drawn) [Compound 58, 2-(2-(4-methoxy-N,2,6-trimethylphenylsulfonamido)ethoxy)-N-methyl-N-(2-(4-phenethyl-4-(pyrrolidin-1-yl)cyclohexyl)ethyl)acetamide], the figures for the inhibition at 10 µM in experiment [1] (setting [3]) and in experiment [2] (setting [4]) were 103% and 100%, respectively.

As for `COc1cc(C)c(S(=O)(=O)N2CCC(OCC(=O)NC3CCC(Cc4ccccc4C)(N(C)C)CC3)C2)c(C)c1` (stereo not drawn) [Compound 14, N-(4-(dimethylamino)-4-(2-methylbenzyl)cyclohexyl)-2-(1-(4-methoxy-2,6-dimethylphenylsulfonyl)pyrrolidin-3-yloxy)acetamide], the figures for the inhibition at 10 µM in experiment [1] (setting [3]) and in experiment [2] (setting [4]) were 89% and 82%, respectively.

As for `Cc1cc(S(=O)(=O)N2CCCCC2CCC(=O)N2CCC(c3ccc(F)cc3)(N3CCN(C)CC3)CC2)c(C)cc1Cl` (stereo not drawn) [Compound 138, 3-(1-(4-chloro-2,5-dimethylphenylsulfonyl)piperidin-2-yl)-1-(4-(4-fluorophenyl)-4-(4-methylpiperazin-1-yl)piperidin-1-yl)propan-1-one], the inhibition at 10 µM worked out at 102% in experiment [1] (setting [3]) and 28% in experiment [2] (setting [4]).

As to `COc1cc(C)c(S(=O)(=O)N2CCCCC2COCC(=O)N(C)CC2CCC(CCc3ccccc3)(N3CCN(C)CC3)CC2)c(C)c1` (stereo not drawn) [Compound 144, 2-((1-(4-methoxy-2,6-dimethylphenylsulfonyl)piperidin-2-yl)methoxy)-N-methyl-N-((4-(4-methylpiperazin-1-yl)-4-phenethylcyclohexyl)methyl)acetamide], the results for the inhibition at 10 µM in experiment [1] (setting [3]) and in experiment [2] (setting [4]) were 103% and 111%, respectively.

As to `COc1cc(C)c(S(=O)(=O)N(C)CCOCC(=O)NC2CCC(Cc3ccccc3)(N3CCCCC3)CC2)c(C)c1` (stereo not drawn) [Compound 17, N-(4-benzyl-4-(piperidin-1-yl)cyclohexyl)-2-(2-(4-methoxy-N,2,6-trimethylphenylsulfonamido)ethoxy)acetamide], the figures for the inhibition at 10 µM in experiment [1] (setting [3]) and in experiment [2] (setting [4]) were 86% and 75%, respectively.

Regarding `COc1cc(C)c(S(=O)(=O)N2CCCCC2COCC(=O)N(C)CCCC2CCC(CCc3ccccc3)(N3CCCC3)CC2)c(C)c1` (stereo not drawn) [Compound 59, 2-((1-(4-methoxy-2,6-dimethylphenylsulfonyl)piperidin-2-yl)methoxy)-N-methyl-N-(3-(4-phenethyl-4-(pyrrolidin-1-yl)cyclohexyl)propyl)acetamide], the inhibition at 10 µM in experiment [1] (setting [3]) turned out to be 101%; in experiment [2] (setting [4]), 100%.

For the compound `COc1cc(C)c(S(=O)(=O)N2CCCCC2CCCC(=O)N2CCC(c3cccc(F)c3)(N3CCN(C)CC3)CC2)c(C)c1` (stereo not drawn) [Compound 214, 1-(4-(3-Fluorophenyl)-4-(4-methylpiperazin-1-yl)piperidin-1-yl)-4-(1-(4-methoxy-2,6-dimethylphenylsulfonyl)piperidin-2-yl)butan-1-one], the inhibition at 10 µM in experiment [1] (setting [3]) stood at 99%; in experiment [2] (setting [4]) it was 101%.

For the compound `CN1CCN(C2(c3cccc(F)c3)CCN(C(=O)COCC3CCCCN3S(=O)(=O)c3ccccc3C(F)(F)F)CC2)CC1` (stereo not drawn) [Compound 225, 1-(4-(3-Fluorophenyl)-4-(4-methylpiperazin-1-yl)piperidin-1-yl)-2-((1-(2-(trifluoromethyl)phenylsulfonyl)piperidin-2-yl)methoxy)ethanone], the inhibition at 10 µM in experiment [1] (CHO-K1, read-out: hB1R [10 μM] % inhibition) amounted to 100%; in experiment [2] (CHO-K1, read-out: rB1R [10 μM] % inhibition), 101%.
